US20200016277A1, “NANOPARTICLES FOR ACTIVE AGENT DELIVERY TO BRAIN CANCERS” (MUSC FOUNDATION FOR RESEARCH DEVELOPMENT, priority 2017, published 2020)

Tested on: U87 cells
Test: Cytotoxicity of TMZ micelles (Guava ViaCount cell viability assay)
Procedure: Three cytotoxicity experiments, using Guava Via-Count Assay and flow cytometry (EMD Millipore, MA, USA), were performed using increasing concentrations of free TMZ, MTMZ and PMTMZ over increasing time. Cells (30,000 cells per well) were plated in 24-well plates and incubated overnight at 37° C. with 5% CO2. A TMZ solution (1 mg ml^−1) in DMSO was prepared and stored at 4° C. The stock solution was diluted with alpha-MEM and used to prepare free TMZ at increasing concentrations of 0-100 04. Independently, both 1 μM and 10 04 samples of PMTMZ and MTMZ were prepared with alpha-MEM. The triplicate wells were treated with concentrations at a constant volume of 200 μl per well. After 24 h, cell viability was performed using Guava ViaCount Assay and flow cytometry (EMD Millipore). The remaining wells were retreated with the appropriate concentrations over a 10 day period. Viability data was collected and analyzed.

Cn1nnc2c(C(N)=O)ncn2c1=O [free TMZ, temozolomide]
Cells killed (cell death) (U87, 1 μM, between 1 and 5 days): approximately 4% | Cell death (U87, 10 or 100 μM, between 24 and 72 h): ~2%
